Source: article PMC4528135, “Kinetic Investigations of the Role of Factor Inhibiting Hypoxia-inducible Factor (FIH) as an Oxygen Sensor” (The Journal of Biological Chemistry, 2015)

Columns and labels:
Assay type in all cases: biochemical
[1] = target: T1, PHD2 (Homo sapiens, UniProt Q9GZT9); experiment: Rapid quench-flow, PHD2 pre-steady-state product and succinate formation; conditions: same mixture as stopped-flow, O2-saturated buffer 1:1, 5 °C, quenched with 1% CF3CO2H
T1 construct: The catalytic domain of PHD2 (residues 181–426) was purified as described; made in house
Description: Rapid quench-flow experiments were performed using the same conditions and preparation of the assay mixture as used in stopped-flow experiments. Rapid quench-flow equipment (TgK Scientific Ltd.) in an anaerobic glove box was used for the experiments. Samples were quenched with 1% CF3CO2H and analyzed using MALDI-TOF-MS (peptide hydroxylation) as described above or liquid chromatography-mass spectrometry (LC-MS, for succinate production). For LC-MS, chromatographic separation was performed at 50 °C using a Waters ACQUITY BEH Amide 1.7-μm, 2.1 × 100-mm column on a Waters ACQUITY^TM ultraperformance liquid chromatography system (Waters Corp., Milford, MA). The following eluents were used: mobile phase A: 10% H2O, 90% acetonitrile (v/v), 10 mM ammonium formate; mobile phase B: 50% H2O, 50% acetonitrile (v/v), 10 mM ammonium formate. The elution gradient was 0–7.0 min linear from 10 to 30% B, and 7.0–9.0 min at 10% B for re-equilibration of the column. A constant flow rate of 0.4 ml/min was used. Analytes were detected in negative ionization mode using single reaction monitoring on a Quattro triple quadrupole mass spectrometer (Waters) with a cone voltage of 15 V and a capillary voltage of 3.0 kV. The desolvation temperature was set to 250 °C, and the source temperature was set to 120 °C.
To investigate correlation of the spectroscopic observations with rates of product accumulation, equivalent reactions were analyzed by rapid quench-flow methodology. Anerobically prepared PHD2·Fe(II)·2OG·peptide substrate complexes were mixed with O2-saturated buffer in a 1:1 ratio; reactions were quenched at defined time points with 1% aqueous CF3CO2H. The level of peptide hydroxylation was assessed by MALDI-TOF-MS ([42]), and succinate accumulation was analyzed by LC-MS. To obtain rate constants for product accumulation, the results were fitted with a single exponential function (Fig. 5E and Table 3).

[2] = target: T1, PHD2; experiment: Stopped-flow UV-visible spectroscopy, PHD2·Fe(II)·2OG·substrate + O2; conditions: anaerobic 0.8 mM PHD2, 1 mM peptide, 5 mM 2OG, 50 mM HEPES pH 7.5, mixed 1:1 with O2-saturated buffer at 5 °C, double exponential fit
Description: Stopped-flow UV-visible spectroscopy experiments were performed as described previously ([32], [42]). […] The reaction was observed over 1000 s using a photodiode array detector, and kinetic traces were analyzed using Origin version 8.51 software. Data were fitted with a double exponential function (y = A1 × exp(−kriset) + A2 × exp(−kfallt) + y0). The A1, A2, and y0 parameters were restricted with upper limits to match the observed amplitude/offset changes.
Previously reported pre-steady-state kinetic studies on PHD2 focused on its reaction with CODD HIF-1α 19-mer peptide ([38], [42]); there is no reported information on the rates of PHD2 reaction with O2 in the presence of NODD HIF-1α or HIF-2α substrates. To ascertain whether a slow reaction with O2 under pre-steady-state conditions is common to PHD2-catalyzed hydroxylation of both CODD and NODD, we investigated the reaction of PHD2 with NODD substrates in comparison with CODD for both HIF-1α and HIF-2α. Pre-steady-state reactions of PHD2 were initiated by rapid mixing of anaerobic PHD2·Fe(II)·2OG·HIF-α complexes with O2-saturated buffer at 5 °C. Reactions were initially observed using a photodiode array detector, and difference spectra (in comparison with the reaction with O2-free buffer) were subsequently analyzed.
FIGURE 5. Pre-steady-state kinetics of PHD2-catalyzed HIF-1/2α hydroxylation. […] B, stopped-flow kinetic traces at 520 nm showing absorbance changes in control experiments: Fe(II) only, mix of Fe(II) and 2OG, reaction of PHD2·Fe(II)·2OG complex with O2 in the absence of CODD; reaction of PHD2·Fe(II)·N-oxalylglycine (NOG)·CODD complex with O2. N-Oxalylglycine is an inhibitor of 2OG oxygenases. […] The kinetic traces represent the average of triplicate assays. E, HIF-1/2α peptide hydroxylation, as determined by MALDI-TOF-MS. Reactions were quenched with 1% CF3CO2H at defined time points.

[3] = target: T1, PHD2; experiment: Time course of PHD2-catalyzed peptide hydroxylation; conditions: 4 μM PHD2, 100 μM peptide, 50 μM Fe(II), 300 μM 2OG, 1 mM L-ascorbate, 50 mM HEPES pH 7.5, 37 °C, atmospheric O2; MALDI-TOF-MS; triplicate assays
Description: (§1) Enzymatic assays were conducted as described ([46], [47]). Unless otherwise stated, the assay mixture typically contained 5 μM FIH, 500 μM substrate, 500 μM 2OG, 1 mM L-ascorbate, and 50 μM Fe(NH4)2(SO4)2 or 4 μM PHD2, 100 μM substrate, 300 μM 2OG, 4 mM L-ascorbate, and 50 μM Fe(NH4)2(SO4)2. For HIF-1α CODD19-mer, the background levels of methionine oxidation resulting from assay conditions were subtracted based on non-enzymatic controls ([48]).
FIGURE 3. PHD2- and FIH-catalyzed hydroxylation of HIF-1/2α peptide substrates. A, time course of HIF-1/2α CODD19-mer peptide hydroxylation; B, time course of HIF-1/2α NODD19-mer peptide hydroxylation. Conditions were as follows: 4 μM PHD2, 100 μM peptide, 50 μM Fe(II), 300 μM 2OG, 1 mM L-ascorbate in HEPES 50 mM (pH 7.5) were incubated at 37 °C at atmospheric O2. C, time course of HIF-1α CAD 19- and 35-mer peptide hydroxylation. D, time course of HIF-2α CAD 19- and 35-mer peptide hydroxylation. Conditions were as follows: 5 μM FIH, 500 μM peptide, 50 μM Fe(II), 500 μM 2OG, 1 mM L-ascorbate in HEPES 50 mM (pH 7.5) were incubated at 37 °C at atmospheric O2. The different hydroxylation levels were analyzed by MALDI-TOF-MS. Error bars, S.D. of triplicate assays.

[4] = target: T2, PHD2 (catalytic domain, residues 181–426) (Homo sapiens, UniProt Q9GZT9); experiment: Steady-state kinetics of PHD2-catalyzed HIF-α CODD/NODD hydroxylation (MALDI-TOF-MS); conditions: PHD2, 4 μM PHD2, 50 μM Fe(II), 4 mM L-ascorbate, 50 mM HEPES pH 7.5, 37 °C
T2 construct: The catalytic domain of PHD2 (residues 181–426) was purified as described; made in house
Description: as §1
The O2 dependence of FIH-catalyzed reactions was determined by conducting enzymatic assays in an “In vivo 500 Hypoxia Workstation” (Ruskinn) using buffers pre-equilibrated under different pO2 values for 24 h. The O2 dependence of PHD2-catalyzed reactions was determined by conducting enzymatic assays in sealed glass vials with variable N2/O2 contents ([42]). Reactions were stopped by spotting samples onto a matrix-assisted laser desorption/ionization-time of flight mass spectrometry (MALDI-TOF-MS) target plate and immediately mixing with α-cyano-4-hydroxycinnamic acid matrix. Hydroxylation levels were assessed by MALDI-TOF-MS as described ([46]).

T1 sequence (Q9GZT9 181-426): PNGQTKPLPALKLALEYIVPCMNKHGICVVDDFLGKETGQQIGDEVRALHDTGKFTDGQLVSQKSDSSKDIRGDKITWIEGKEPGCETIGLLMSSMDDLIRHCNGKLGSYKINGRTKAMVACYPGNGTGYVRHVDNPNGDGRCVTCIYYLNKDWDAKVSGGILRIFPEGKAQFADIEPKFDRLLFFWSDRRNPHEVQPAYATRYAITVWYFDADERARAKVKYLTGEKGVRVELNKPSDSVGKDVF
T2 sequence (Q9GZT9 181-426): as above

DLDLEMLAPYIPMDDDFQL [HIF-1α CODD, 19-mer fragment (556–574) of the HIF-1α C-terminal oxygen-dependent degradation domain, PHD2 substrate]
Rapid quench-flow kproduct ([1]; peptide hydroxylation by MALDI-TOF-MS, single exponential fit): 0.0155 ± 0.0012 s⁻¹ | Rapid quench-flow ksuccinate ([1]; succinate by LC-MS): 0.0130 ± 0.0020 s⁻¹ | Stopped-flow, 520 nm (PHD2) krise phase [2]: 0.015 ± 0.005 s⁻¹ | Stopped-flow, 520 nm (PHD2) kfall phase ([2]; traces average of triplicate): 0.040 ± 0.007 s⁻¹ | substrate hydroxylation after 15 min [3]: 70% | kcat^app [4]: 0.060 ± 0.006 s⁻¹
